We go through two molecules from US4683237A, “Fluoroalkyl esters of dihydrolysergic acid useful as 5HT2 receptor antagonists” (Eli Lilly and Company, priority 1985, dated 1987).

Each structure is given as a SMILES string. Counter-ions that a name gives are not always drawn.

Test [1] concerns the target T1, 5HT2 receptors (Rattus norvegicus, UniProt P14842).
T1 construct: Contraction to serotonin was evaluated in the jugular vein since this tissue produces marked responses to serotonin in the absence of alpha receptors; from tissue; host or cells: external jugular vein of male Wistar rats
The test can be described thus: Antagonism of serotonin contraction in isolated rat external jugular vein (apparent antagonist dissociation constant). The arrangement: species or system Male Wistar rats. Conditions: serotonin agonist, antagonist incubated one hour, 37° C., read-out: -log KB ± S.E. (apparent antagonist dissociation constant) (converted). Here is the method: An initial optimum resting force of 1 and 4 g was applied to the jugular vein and aorta, respectively. […] Exp. Ther., 205, 400 (1978). Alpha receptor antagonist activity was evaluated in the aorta.
The -log KB ±S.E. value obtained for 1-fluoromehtyl-2-fluoroethyl 1-isopropyl-9,10-dihydrolysergate maleate was 8.97±0.22.

For test [2], the system named is vascular alpha adrenergic, dopaminergic and histaminergic receptors. The conditions noted are these: in words; Cohen I; cited from earlier work.
Test [3] has as its system 5HT2 receptors. The conditions noted are these: in words; mediated by 5HT2 receptors; Cohen I; cited from earlier work.
Test [4] deals with 5HT2 receptors. The conditions noted are these: in words; Garbrecht compounds; cited from earlier work.

T1 sequence (P14842 whole entry): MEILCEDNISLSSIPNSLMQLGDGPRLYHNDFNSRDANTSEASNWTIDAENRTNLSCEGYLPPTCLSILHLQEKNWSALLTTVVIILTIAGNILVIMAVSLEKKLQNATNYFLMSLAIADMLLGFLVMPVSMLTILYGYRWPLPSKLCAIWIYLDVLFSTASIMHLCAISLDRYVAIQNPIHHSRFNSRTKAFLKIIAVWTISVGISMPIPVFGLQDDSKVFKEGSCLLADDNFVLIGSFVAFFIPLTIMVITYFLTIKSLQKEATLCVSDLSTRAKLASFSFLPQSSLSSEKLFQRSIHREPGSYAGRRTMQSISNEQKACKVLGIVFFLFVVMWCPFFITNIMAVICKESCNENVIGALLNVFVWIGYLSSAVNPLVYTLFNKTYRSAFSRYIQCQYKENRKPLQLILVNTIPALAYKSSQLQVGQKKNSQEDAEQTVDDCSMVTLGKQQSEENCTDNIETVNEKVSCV

In general, Kb refers to the equilibrium dissociation constant of an antagonist, usually derived from a functional assay. Regarding `CC(C)n1cc2c3c(cccc31)[C@H]1C[C@@H](C(=O)OC(CF)CF)CN(C)[C@@H]1C2` [1-fluoromethyl-2-fluoroethyl-1-isopropyl-9,10-dihydrolysergate maleate], the Kb in test [1] is 1.07 nM.

`CC(O)C(C)OC(=O)[C@@H]1C[C@@H]2c3cccc4c3c(cn4C(C)C)C[C@H]2N(C)C1` (stereo partly drawn) [LY53857, 1-isopropyl-6-methyl-8β-(1-methyl-2-hydroxy)propoxycarbonyl-5R-ergoline]: the “affinity for vascular alpha adrenergic, dopaminergic and histaminergic receptors” value in test [2] is on record as “minimal affinity”. The “antagonism of vascular contraction to serotonin” value in test [3] is “potent antagonist of vascular contraction to serotonin”. Further, in test [4], the “peripheral serotonin antagonist activity against 5HT2 receptors” value is recorded as “most active peripheral serotonin antagonist from Garbrecht”.
